The text below walks through data of US20250277208A1, “Method of Peptide Library Construction and Peptides Thereof” (Alcamena Stem Cell Therapeutics, LLC, priority 2024, published 2025).

Several values for one entry are separate records, joined by “and”; a condition that tells them apart may be missing. Equal values may be shown once. Square brackets hold non-standard residues; d marks the D form. Ends that are not written are not given here. Phe(4-F) = N[C@@H](Cc1ccc(F)cc1)C(=O)O; Gla = N[C@@H](CC(C(=O)O)C(=O)O)C(=O)O; Cha = N[C@@H](CC1CCCCC1)C(=O)O

One test addresses T1, IL-6 (Homo sapiens, UniProt P05231).
T1 construct: purchased R&D Systems BT7270B
Nature of the test: Biacore surface plasmon resonance binding of peptides to immobilised IL-6.
Conditions: not given
Text: Two DNA fragments were amplified from a synthetic fragment of the IL-6R. The 5′ fragment was amplified with forward primer and a mixture of 432 reverse primers, each containing an overhang of 6 codons. The 3′ fragment was amplified with a mixture of 432 forward primers, also containing overhangs of six degenerate codons and the reverse primer. Either the first or the second nucleotide of each codon was replaced with a degenerate base. Following PCR amplification, DNA fragments were phosphorylated and ligated leading to various sequence rearrangements shown at the bottom of the FIG. 3. Four hundred thirty-two forward and reverse oligos with an overhang of 6 codons from the IL-6R binding domain were used for PCR. A degenerate nucleotide was inserted at the first or second position of each codon. When ligated, these sequences generated a library of 1×10^13 different DNA sequences. The library of DNA sequences was taken through eight rounds of mRNA Display generating a peptide library. Eighteen of the most abundant peptides in the peptide library were synthesized in a linear form and tested for binding to IL-6 using Biacore. One of the peptides (#9) (“Peptide 9”) from the peptide library, with the sequence of […] The twelve non-terminal residues represent the PepFusion library-derived DNA sequences, while N-terminal serine and C-terminal glycine come from the flanking linkers and were kept as a precaution, in case linker sequences contributed to peptide interaction with its target.
Binding reactions were performed in HBS-P/2% DMSO buffer (10 mM Hepes, pH 7.4, 150 mM NaCl, 0.05% P-20, 2% DMSO), which was filtered through […] filters and degassed before use. Biotinylated recombinant human IL-6 (IL-6-Biotin) was bound to the surface of a Biacore SA sensor chip of a Biacore T200 surface plasmon resonance unit as follows. The streptavidin surface of the chip (flow cells 1 and 2) was activated by injecting 20 μl of 1 M NaCl/50 mM NaOH at 20 μl/min, in 3 pulses. Biotinylated Recombinant Human IL6 was diluted with HBS-P buffer and an aliquot of 100 μl (2 micrograms/ml) was injected into flow cell 2 at 5 microliters/min to yield a signal of 1400 response units (RU) (10 microliters were injected). Any remaining activated residues on the streptavidin surface of flow cells 1 and 2 were blocked with 30 microliters 500 nM free Biotin.
(§1) Affinity scouting assay was performed at a flow rate of 30 microliters/min at 25° C. The analyte (60 microliter aliquots of peptides, at concentrations of 20 μM in HBS-P/2% DMSO buffer) was injected into flow cells 1 and 2 and the association reaction was recorded. The surface was then washed with HBS-P/2% DMSO for 3 min and the dissociation of the analyte from the bound IL6 was followed over time. The surfaces of the flow cells were regenerated with 30 microliters of 10 mM NaOH, followed 50 microliters of HBS-P/2% DMSO buffer.
as §1, with “Kinetics analysis of binding was performed” for “Affinity scouting assay was performed”, “concentrations of 0, 1.25 μM, 2.5 μM, 5 μM, 10 μM and 20 μM” for “concentrations of 20 μM”, “DMSO buffer. Sensorgrams were analyzed using BIAeveluation 3.2.1 software (Cytiva). Values from the reference flow cell were subtracted to obtain the values for specific binding. Data were globally fitted to the Langmuir model for a 1:1 mass transfer binding.” for “DMSO buffer.”
On to “FD(hL)DIHLLELPTEWEKDKNEE [PN-1974(2), peptide PN-1974 with termini protected by acetylation and amidation, reference compound]”, for which the “binding to IL-6, in words” value is listed as “eliminated its activity”.

Turning to “SVKDLQHGLRHVVG [Peptide C1, control peptide homologous to peptide 9, devoid of any mutations; two unmutated fragments of IL-6R, reference compound]”, the “binding to IL-6, in words” value is “no binding”. As to “INTLLSEINSILLDIISLL [RA07, published control peptide described in Kobayashi et al., Mol Biotechnol 2011, reference compound]”, the “binding to IL-6, in words” value is “did not bind”. As for “FD(Cha)DIHLL(4F)LPTEWEK(Cla)KNEE (FD[Cha]DIHLL[Phe(4-F)]LPTEWEK[Gla]KNEE) [PN-2519, reference compound]”, the “binding to IL-6, in words” value is recorded as “no activity”.

In the case of SVRDLLRRMCHCVG [Peptide 67], the “binding to IL-6, in words” value was “no binding”.

Still in this test, the particulars now being: KD (nM) P < 0.05, Table 1; N and C termini not protected; cells printed in μM.
“GNSRDLLRRMCHIVG [Peptide 42, GNSRDLLRRMCHIVG]”: the Kd is greater than 10000 nM.

Still in this test, the particulars now being: Table 1; N and C termini not protected; cells printed in μM; read-out: KD (nM) P < 0.05.
As for “SVRDLHKMMCHIVG [Peptide 25, SVRDLHKMMCHIVG]”, the Kd was greater than 10000 nM. On to “SVRDLLRRMCHPRLG [Peptide 46, SVRDLLRRMCHPRLG]”, for which the Kd was greater than 10000 nM. As to “SNYTLLRRMCHIVG [Peptide 36, SNYTLLRRMCHIVG]”, the Kd is greater than 10000 nM. As to “LGHRDLLRRMCHIVG [Peptide 29, LGHRDLLRRMCHIVG]”, the Kd is greater than 10000 nM.

Turning to “SVRIYLRRMCHIVG [Peptide 20, SVRIYLRRMCHIVG]”, the Kd is greater than 10000 nM. In the case of “SVRDPHNRMCHIVG [Peptide 22, SVRDPHNRMCHIVG]”, the Kd was greater than 10000 nM. The same measure, in the same setting: the result for “SVRDLLNRICHIVG [Peptide 21, SVRDLLNRICHIVG]” reads greater than 10000 nM. In the case of “LEIRDLLRRMCHIVG [Peptide 26, LEIRDLLRRMCHIVG]”, the dissociation constant (Kd) was greater than 10000 nM. With “SVHIHLRRMCHIVG [Peptide 34, SVHIHLRRMCHIVG]”, the Kd was greater than 10000 nM. As for “SVRDNFHRMCHIVG [Peptide 30, SVRDNFHRMCHIVG]”, the Kd was greater than 10000 nM. On the same count and under the same terms, in the case of “SVSIHLRRMCHIVG [Peptide 32, SVSIHLRRMCHIVG]” it was greater than 10000 nM; in that of “SVRDLLHGRCHIVG [Peptide 40, SVRDLLHGRCHIVG]”, greater than 10000 nM. In the case of “SVRDLPRIMCHIVG [Peptide 31, SVRDLPRIMCHIVG]”, the Kd was greater than 10000 nM. The same measure, in the same setting: the result for “SVRDLLRMFCHIVG [Peptide 23, SVRDLLRMFCHIVG]” reads greater than 10000 nM.

Staying with this test, now noted: Table 1; termini not protected.
Turning to “H-SVRDLIRMMCHIVG-OH [Peptide 33, SVRDLIRMMCHIVG]”, the “binding affinity compared with parent peptide 9, in words” value is given as “improved binding affinity”. Take “NERRDLLRRMCHIVG [Peptide 41, NERRDLLRRMCHIVG]”: the “binding affinity compared with parent peptide 9, in words” value is recorded as “reduced binding affinity”. For the substance “H-ETIRDLLRRMCHIVG-OH [Peptide 24, ETIRDLLRRMCHIVG]”, the “binding affinity compared with parent peptide 9, in words” value is listed as “improved binding affinity”. As for “H-FAFRDLLRRMCHIVG-OH [Peptide 45, FAFRDLLRRMCHIVG]”, the “binding affinity compared with parent peptide 9, in words” value is “improved binding affinity”. Turning to “SVRDLQKOMCHIVG (SVRDLQKQMCHIVG; not fully specified) [Peptide 44]”, the “binding affinity compared with parent peptide 9, in words” value is “completely lost binding affinity”. Regarding “H-ATIRDLLRRMCHIVG-OH [Peptide 38, ATIRDLLRRMCHIVG]”, the “binding affinity compared with parent peptide 9, in words” value is on record as “improved binding affinity”. “H-SVRDLLRRMKVCVG-OH [Peptide 27, SVRDLLRRMKVCVG]”: the “binding affinity compared with parent peptide 9, in words” value is listed as “improved binding affinity”. CVYRDLLRRMCHIVG [Peptide 35]: the “binding affinity compared with parent peptide 9, in words” value is “completely lost binding affinity”.

The test is the same for the next values; noted with them: Table 2; N terminus acetylated, C terminus amidated; cells printed in μM; read-out: KD (nM) P < 0.05.
With “Ac-SFRDLLRRMKHIVG-NH2 [Peptide 88, SFRDLLRRMKHIVG]”, the Kd is greater than 10000 nM. Consider “Ac-FSFRDLLRRMKHIVG-NH2 [Peptide 91, FSFRDLLRRMKHIVG]”, for which the Kd was greater than 10000 nM. Same read-out and setting: in the case of “Ac-TIRDLIRMMKHIVG-NH2 [Peptide 99, TIRDLIRMMKHIVG]” it was greater than 10000 nM. Take “Ac-FSVRDLLRRMKHIVG-NH2 [Peptide 85, FSVRDLLRRMKHIVG]”: the dissociation constant (Kd) is greater than 10000 nM. On to “Ac-FSFRDLIRMMCHIVG-NH2 [Peptide 74, FSFRDLIRMMCHIVG]”, for which the Kd was greater than 10000 nM. Consider “Ac-ATIRDLIRMMKHIVG-NH2 [Peptide 96, ATIRDLIRMMKHIVG]”, for which the Kd is greater than 10000 nM.

As to “Ac-TIRDLLRMMKHIVG-NH2 [Peptide 98, TIRDLLRMMKHIVG]”, the Kd was greater than 10000 nM.

Regarding “Ac-TIRDLLRRMKHIVG-NH2 [Peptide 97, TIRDLLRRMKHIVG]”, the dissociation constant (Kd) is greater than 10000 nM. As for “Ac-FSVRDLLRMMKHIVG-NH2 [Peptide 86, FSVRDLLRMMKHIVG]”, the Kd was greater than 10000 nM. As for “Ac-ATIRDLLRMMKHIVG-NH2 [Peptide 95, ATIRDLLRMMKHIVG]”, the Kd is greater than 10000 nM. For “Ac-SFRDLLRMMKHIVG-NH2 [Peptide 89, SFRDLLRMMKHIVG]”, the Kd was greater than 10000 nM. With “Ac-FSFRDLLRMMKHIVG-NH2 [Peptide 92, FSFRDLLRMMKHIVG]”, the Kd was greater than 10000 nM. On the same count and under the same terms, in the case of “Ac-ATIRDLLRRMKHIVG-NH2 [Peptide 94, ATIRDLLRRMKHIVG]” it was greater than 10000 nM.

The test is the same for the next values; noted with them: Table 2; termini protected.
Turning to “Ac-TIRDLLRRMCHIVG-NH2 [Peptide 71, TIRDLLRRMCHIVG]”, the “affinity compared with the parent sequence, in words” value is “greatly improved”.

As for “Ac-SVRDLLRMMCHIVG-NH2 [Peptide 69, SVRDLLRMMCHIVG]”, the “affinity compared with the parent sequence, in words” value was “no significant effect”.

Regarding “Ac-SVRDLLRRMKHIVG-NH2 [Peptide 65, SVRDLLRRMKHIVG]”, the “affinity compared with the parent sequence, in words” value is given as “slightly better affinity”. For the substance “Ac-FAFRDLLRMMCHIVG-NH2 [Peptide 75, FAFRDLLRMMCHIVG]”, the “affinity compared with the parent sequence, in words” value was “not improved”. Regarding “Ac-SVRDLLRRMCVIVG-NH2 [Peptide 66, SVRDLLRRMCVIVG]”, the “affinity compared with the parent sequence, in words” value is reported as “slightly better affinity”.

“Ac-FSFRDLLRMMCHIVG-NH2 [Peptide 80, FSFRDLLRMMCHIVG]”: the “affinity compared with the parent sequence, in words” value is “not improved”. On the same count and under the same terms, the result for “Ac-SVRDLIRRMCHIVG-NH2 [Peptide 68, SVRDLIRRMCHIVG]” reads “lowered affinity”.

The test is the same for the next values; noted with them: termini not protected; read-out: KD.
In the case of “H-SVRDLLRRMCHIVG-OH [Peptide 9, SVRDLLRRMCHIVG]”, the Kd is 2500 nM.

The same test, now with this note: termini protected (acetylated, amidated); read-out: KD.
As to “Ac-FAFRDLIRMMKHIVG-NH2 [Peptide 77, FAFRDLIRMMKHIVG]”, the Kd was ≤ 1500 nM and 405 nM.

On to “Ac-FAFRDLIRMMKVCVG-NH2 [Peptide 79, FAFRDLIRMMKVCVG]”, for which the Kd was 247 nM. Consider “Ac-FAFRDLIRMMCHIVG-NH2 [Peptide 58, FAFRDLIRMMCHIVG]”, for which the Kd is ~100 nM and 71 nM.

For the substance “Ac-ATIRDLIRMMCHIVG-NH2 [Peptide 51, ATIRDLIRMMCHIVG]”, the dissociation constant (Kd) was ~100 nM and 128 nM. For “Ac-FSFRDLLRRMCHIVG-NH2 [Peptide 72, FSFRDLLRRMCHIVG]”, the Kd was determined as 27 nM.

For “Ac-FAFRDLIRMMCVIVG-NH2 [Peptide 78, FAFRDLIRMMCVIVG]”, the Kd was no more than 1500 nM.

As for “Ac-ATIRDLIRMMKVIVG-NH2 [Peptide 83, ATIRDLIRMMKVIVG]”, the Kd stood at 563 nM.

“Ac-ATIRDLIRMMKVCVG-NH2 [Peptide 82, ATIRDLIRMMKVCVG]”: the Kd turned out to be 108 nM. Same read-out and setting: in the case of “Ac-FAFRDLIRMMKVIVG-NH2 [Peptide 76, FAFRDLIRMMKVIVG]” it was no more than 1500 nM.
